Legend:
Human recombinant MMP-2 = biological target: T1, Human recombinant MMP-2 (Homo sapiens, UniProt P08253); test: In vitro MMP inhibition, IC50 determination (fluorogenic substrate I); type: biochemical
T1 construct: made in house; host or cells: MMP-2-transfected p2AHT2 cells
T1 sequence (P08253 110-660): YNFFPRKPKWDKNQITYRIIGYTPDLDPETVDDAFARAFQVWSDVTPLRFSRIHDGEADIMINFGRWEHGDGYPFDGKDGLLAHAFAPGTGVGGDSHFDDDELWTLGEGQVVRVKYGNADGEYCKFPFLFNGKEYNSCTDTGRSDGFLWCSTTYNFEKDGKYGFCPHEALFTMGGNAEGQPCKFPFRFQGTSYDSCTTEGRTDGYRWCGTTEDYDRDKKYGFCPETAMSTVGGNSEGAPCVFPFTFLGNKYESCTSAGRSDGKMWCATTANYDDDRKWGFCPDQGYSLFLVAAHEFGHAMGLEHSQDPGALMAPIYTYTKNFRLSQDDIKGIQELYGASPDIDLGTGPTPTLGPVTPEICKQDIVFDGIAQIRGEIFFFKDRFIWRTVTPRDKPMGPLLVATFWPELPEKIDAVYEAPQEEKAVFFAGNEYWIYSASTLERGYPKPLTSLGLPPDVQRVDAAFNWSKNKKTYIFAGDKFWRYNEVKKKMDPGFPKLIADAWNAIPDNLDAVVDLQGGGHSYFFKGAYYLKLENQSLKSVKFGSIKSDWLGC
Experimental: (§1) Several hydroxamates and salts thereof were analyzed in in vitro assays to determine their ability to inhibit the MMP cleavage of peptide substrates. Inhibition (Ki) and IC50 constants were calculated from the assayed hydroxamate-MMP interactions.
(§2) Human recombinant MMP-1, MMP-2, MMP-9, MMP-13, and MMP-14 were used in this assay. All enzymes were prepared in Assignee's laboratories following usual laboratory procedures. Protocols for the preparation and use of these enzymes are available in the scientific literature. See, e.g., Enzyme Nomenclature (Academic Press, San Diego, Calif., 1992) (and the citations therein). See also, Frije et al., J. Biol. Chem., 26(24), 16766-73 (1994).
The MMP-2 proenzyme was purified by gelatin Sepharose chromatography from MMP-2-transfected p2AHT2 cells provided by Dr. Gregory Goldberg of Washington University (St. Louis, Mo.).
(§3) All MMPs were activated using 4-aminophenylmercuric acetate (“APMA”, Sigma Chemical, St. Louis, Mo.) or trypsin. MMP-9 also was activated using human recombinant MMP-3 (purified in Assignee's laboratory following standard cloning and purification techniques).
(§4) Two fluorogenic, methoxycoumarin-containing polypeptide substrates were used in the MMP inhibition assays:
(§5) MCA-ProLeuGlyLeuDpaAlaArgNH2 (I)
(§6) Here, “Dpa” is 3-(2,4-dinitrophenyl)-L-2,3-diaminopropionyl group, and “MCA” is 7-methoxycoumarin-4-yl acetyl. Substrate (I) was purchased from Baychem (Redwood City, Calif.), and substrate II was prepared Assignee's laboratory. Substrate I was used in the IC50 determination assays, while substrate II was used in the Ki determination assays. In the absence of MMP inhibitory activity, either substrate is cleaved at the Gly-Leu peptide bond. This cleavage separates the highly fluorogenic peptide from the 2,4-dinitrophenyl quencher, thus resulting in increase of fluorescent intensity.
(§7) The stock solutions of the assayed hydroxamates (or salts thereof) were prepared in 1% dimethyl sulfoxide (DMSO). These stock solutions were diluted in Buffer A (100 mM Tris-HCl, 100 mM NaCl, 10 mM CaCl2, 0.05% polyoxyethylene 23 lauryl ether, pH 7.5) to obtain solutions with different hydroxamate concentrations, i.e., assay solutions with different concentrations of the assayed MMP inhibitory compound. The experiment controls contained the same amount of Buffer A/DMSO as the assayed sample, but contained no hydroxamate (or salt thereof).
(§8) The assays from which the IC50 determinations were made were performed as follows. The MMPs were activated with either trypsin or APMA (4-aminophenylmercuric acetate, Sigma Chemical, St. Louis, Mo.). The assayed hydroxamate samples were, incubated in Microfluorrm White Plates (Dynatech, Chantilly, VA) and analyzed on a Perkin Elmer L550 plate reader (Norwalk, Conn.). The excitation wavelength was 328 nm, and the emission wavelength—415 nm. All samples (assayed hydroxamates and controls) were incubated in separate plates at room temperature in the presence of 4 μM of MMP substrate (I). As stated in the previous paragraph, samples containing varying concentrations of the same assayed hydroxamate were prepared. Inhibition was measured as a reduction in fluorescent intensity as a function of MMP inhibitor concentration.

Human recombinant MMP-13 = biological target: T2, Human recombinant MMP-13 (Homo sapiens, UniProt P45452); test: as above; type: biochemical
T2 construct: made in house; host or cells: baculovirus / insect cells
Experimental: as §1, §2
The expressed proenzyme was first purified over a heparin agarose column, and then over a chelating zinc chloride column. The proenzyme was then activated by APMA for use in the assay. Further details on baculovirus expression systems may be found in, for example, Luckow et al., J. Virol., 67, 4566-79 (1993). See also, O'Reilly et al, Baculovirus Expression Vectors: A Laboratory Manual (W. H. Freeman and Co., New York, N.Y., 1992). See also, King et al., The Baculovirus Expression System: A Laboratory Guide (Chapman & Hall, London, England, 1992).
as §3, §4, §5, §6, §7, §8

[1] = value outside parentheses (Ki in parenthesis)

| Compound | IC50 (Human recombinant MMP-2; [1]) [nM] | IC50 (Human recombinant MMP-13; [1]) [nM] | further results |
| --- | --- | --- | --- |
| O=C(NCCCOc1ccc(S(=O)(=O)C2(C(=O)NO)CCOCC2)cc1)c1ccc(Cl)nc1 [Example 381] | 193 | 1.4 |  |
| COc1cc2c(cc1OC)CN(CCCCOc1ccc(S(=O)(=O)C3(C(=O)NO)CCOCC3)cc1)CC2 [Example 338] | 20.6 | 138 |  |
| O=C(NO)C1(S(=O)(=O)c2ccc(OCCc3cccc(N4CCCCC4)c3)cc2)CCOCC1 [Example 594] |  |  | IC50 (Human recombinant MMP-2; value outside parentheses): 140 nM; IC50 (Human recombinant MMP-13; value outside parentheses): 3.8 nM |
| O=C(NCCCOc1ccc(S(=O)(=O)C2(C(=O)NO)CCOCC2)cc1)c1ccc2ccccc2c1 [Example 366] | 347 | 0.3 |  |
| O=C(NCCOc1ccc(S(=O)(=O)C2(C(=O)NO)CCOCC2)cc1)c1cc2ccccc2s1 [Example 619] |  |  | IC50 (Human recombinant MMP-2; value outside parentheses): 66.2 nM; IC50 (Human recombinant MMP-13; value outside parentheses): 1.5 nM |
| COCCN1CCC(C(=O)NO)(S(=O)(=O)c2ccc(OCCCn3cc(-c4cccc(OC)c4)cn3)cc2)CC1 [Example 235] |  |  | IC50 (Human recombinant MMP-2; value outside parenthesis): 422 nM; IC50 (Human recombinant MMP-13; value outside parenthesis): 26 nM |
| COc1ccc(S(=O)(=O)C[C@H](C)COc2ccc(S(=O)(=O)C3(C(=O)NO)CCOCC3)cc2)cc1 [Example 433] | 220 | 7 |  |
| COc1ccc(C(=O)NCCCOc2ccc(S(=O)(=O)C3(C(=O)NO)CCOCC3)cc2)cc1OC [Example 362] | 347 | 3.7 |  |
| CN(C)c1ccc(C(=O)NCCCCOc2ccc(S(=O)(=O)C3(C(=O)NO)CCOCC3)cc2)cc1 [Example 397] | 3 | 14 |  |
| COc1ccc(S(=O)(=O)CCCCOc2ccc(S(=O)(=O)C3(C(=O)NO)CCOCC3)cc2)cc1 [Example 428] | 20 | 1.4 |  |
| CC(C)N(Cc1ccc(C(=O)CCCOc2ccc(S(=O)(=O)C3(C(=O)NO)CCOCC3)cc2)cc1)C(C)C [Example 298] | 11.9 | 18.1 |  |
| COCCN1CCC(C(=O)NO)(S(=O)(=O)c2ccc(OCCCN3C(=O)[C@@H](C)N(c4ccccc4)C3=O)cc2)CC1 [Example 108] |  |  | IC50 (Human recombinant MMP-2; value outside parenthesis): 434 nM; IC50 (Human recombinant MMP-13; value outside parenthesis): 20 nM |
| COc1ccc2cc(C(=O)CCCCOc3ccc(S(=O)(=O)C4(C(=O)NO)CCOCC4)cc3)ccc2c1 [Example 328] | 61.3 | < 0.1 |  |
| O=C(CCCOc1ccc(S(=O)(=O)C2(C(=O)NO)CCOCC2)cc1)Nc1cccc(-c2ccccc2)c1 [Example 571] |  |  | IC50 (Human recombinant MMP-2; value outside parentheses): 11.9 nM; IC50 (Human recombinant MMP-13; value outside parentheses): 1.6 nM |
| Cc1cc(C)nc(SCCOc2ccc(S(=O)(=O)C3(C(=O)NO)CCOCC3)cc2)n1 [Example 283] |  |  | IC50 (Human recombinant MMP-2; value outside parenthesis): 186 nM; IC50 (Human recombinant MMP-13; value outside parenthesis): 29.3 nM |
| CCOc1ccc(-c2noc(CCCOc3ccc(S(=O)(=O)C4(C(=O)NO)CCOCC4)cc3)n2)cc1 [Example 275] |  |  | IC50 (Human recombinant MMP-2; value outside parenthesis): 115 nM; IC50 (Human recombinant MMP-13; value outside parenthesis): 1.7 nM |
| O=C(NCCCOc1ccc(S(=O)(=O)C2(C(=O)NO)CCOCC2)cc1)c1ccc2ccccc2c1O [Example 388] | 185 | 2 |  |
| O=C(NO)C1(S(=O)(=O)c2ccc(OCCCCCO)cc2)CCOCC1 [Example 452] | 2.2 | 14.8 |  |
| O=C(NCCOc1ccc(S(=O)(=O)C2(C(=O)NO)CCOCC2)cc1)c1ccc(-c2ccccc2)cc1 [Example 604] |  |  | IC50 (Human recombinant MMP-2; value outside parentheses): 36.6 nM; IC50 (Human recombinant MMP-13; value outside parentheses): 3.3 nM |
| O=C(CCCOc1ccc(S(=O)(=O)C2(C(=O)NO)CCOCC2)cc1)c1ccc2ccccc2c1 [Example 299] | 3.2 | 0.1 |  |
| O=C(NO)C1(S(=O)(=O)c2ccc(OCCCc3csc(-c4ccccc4)n3)cc2)CCOCC1 [Example 107] |  |  | IC50 (Human recombinant MMP-2; value outside parenthesis): 34 nM; IC50 (Human recombinant MMP-13; value outside parenthesis): 5.5 nM |

Reference: US20040024024A1, “Aromatic sulfone hydroxamates and their use as protease inhibitors” (priority 2001, published 2004)
